From US11279687B2, “Compounds and compositions for the inhibition of NAMPT” (Valo Health, Inc., priority 2010, dated 2022)
Like-named read-outs stand apart in the source and are kept apart here.

Tests used:
NAMPT = NAMPT (Homo sapiens (Human), UniProt P43490); test: NAMPT biochemical inhibition assay (NMN quantified by mass spectrometry)
A2780 cells = test: In-vitro cell proliferation assay (SRB), A2780 cells; assay type: cell-based; conditions: A2780 cells, 72 hours, SRB, read-out: A2780 IC50;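 note: viable cell number read as SRB absorbance, background from media-only wells subtracted, IC50 interpolated from percent inhibition at two bracketing compound concentrations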
[1] = NAMPT biochemical inhibition, read-out: Biochem IC50

Sequence of NAMPT (P43490 whole entry): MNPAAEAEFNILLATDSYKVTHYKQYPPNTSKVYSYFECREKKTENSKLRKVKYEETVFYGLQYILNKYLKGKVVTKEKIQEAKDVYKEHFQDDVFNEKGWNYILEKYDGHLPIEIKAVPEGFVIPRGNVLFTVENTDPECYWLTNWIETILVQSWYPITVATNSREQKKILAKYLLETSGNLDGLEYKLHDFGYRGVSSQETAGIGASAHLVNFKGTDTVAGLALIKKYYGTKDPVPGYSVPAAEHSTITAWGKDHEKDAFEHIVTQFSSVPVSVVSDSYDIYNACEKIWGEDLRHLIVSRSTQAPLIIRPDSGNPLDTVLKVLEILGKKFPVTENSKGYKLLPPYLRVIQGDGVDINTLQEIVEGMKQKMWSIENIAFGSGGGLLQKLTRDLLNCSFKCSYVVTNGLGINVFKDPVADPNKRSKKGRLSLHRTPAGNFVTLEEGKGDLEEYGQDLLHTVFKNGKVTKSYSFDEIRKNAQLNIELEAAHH

| IC50 (NAMPT; [1]) [nM] | IC50 (A2780 cells; Homo sapiens, A2780, 72 h) [nM] | Structure (SMILES) | IC50 (A2780 cells) [nM] | IC50 (NAMPT) [nM] |
| --- | --- | --- | --- | --- |
| 2 | 101 | O=C(NCc1cccnc1)Nc1ccc(S(=O)(=O)N2CC[C@H]3CCCC[C@@H]3C2)cc1 (relative stereo) [rel-3-{4-[(4aR,8aS)-decahydroisoquinoline-2-sulfonyl]phenyl}-1-(pyridin-3-ylmethyl)urea] | – | – |
| 10 | 236 | O=C(NCc1cccnc1)Nc1ccc(S(=O)(=O)N2CC3CCC2C3)cc1 (centres unmarked) [1-(4-{2-azabicyclo[2.2.1]heptane-2-sulfonyl}phenyl)-3-(pyridin-3-ylmethyl)urea] | – | – |
| 5 | 89 | O=C(NCc1cccnc1)Nc1ccc(S(=O)(=O)N2CCC3(CCOC3)CC2)cc1 [1-(4-{2-oxa-8-azaspiro[4.5]decane-8-sulfonyl}phenyl)-3-(pyridin-3-ylmethyl)urea] | – | – |
| 3 | 143 | O=C(NCc1cccnc1)Nc1ccc(S(=O)(=O)N2CCCC(CN3CCCC3=O)C2)cc1 (centres unmarked) [1-(4-{3-[(2-oxopyrrolidin-1-yl)methyl]piperidine-1-sulfonyl}phenyl)-3-(pyridin-3-ylmethyl)urea] | – | – |
| 11 | 145 | O=C(NCc1cccnc1)Nc1ccc(S(=O)(=O)N2CCC3(CCCCC3)CC2)cc1 [1-(4-{3-azaspiro[5.5]undecane-3-sulfonyl}phenyl)-3-(pyridin-3-ylmethyl)urea] | – | – |
| 4 | 135 | O=C(NCc1cccnc1)Nc1ccc(S(=O)(=O)N2CCN(CC(=O)N3CCOCC3)CC2)cc1 [1-(4-{4-[2-(morpholin-4-yl)-2-oxoethyl]piperazine-1-sulfonyl}phenyl)-3-(pyridin-3-ylmethyl)urea] | – | – |
| 9 | 21 | O=C(NCc1cccnc1)Nc1ccc(S(=O)(=O)N2CCN(CC(=O)N3CCCCC3)CC2)cc1 [1-(4-{4-[2-oxo-2-(piperidin-1-yl)ethyl]piperazine-1-sulfonyl}phenyl)-3-(pyridin-3-ylmethyl)urea] | – | – |
| 4 | 99 | O=C(NCc1cccnc1)Nc1ccc(S(=O)(=O)N2CCN(CC(=O)N3CCCC3)CC2)cc1 [1-(4-{4-[2-oxo-2-(pyrrolidin-1-yl)ethyl]piperazine-1-sulfonyl}phenyl)-3-(pyridin-3-ylmethyl)urea] | – | – |
| 3 | 24 | O=C(NCc1cccnc1)Nc1ccc(S(=O)(=O)N2CCN(CCCN3CCOCC3)CC2)cc1 [1-(4-{4-[3-(morpholin-4-yl)propyl]piperazine-1-sulfonyl}phenyl)-3-(pyridin-3-ylmethyl)urea] | – | – |
| 2 | 78 | O=C(NCc1cccnc1)Nc1ccc(S(=O)(=O)N2CCC(CN3CCCC3=O)CC2)cc1 [1-(4-{4-[(2-oxopyrrolidin-1-yl)methyl]piperidine-1-sulfonyl}phenyl)-3-(pyridin-3-ylmethyl)urea] | – | – |
| 4 | 168 | O=C(NCc1cccnc1)Nc1ccc(S(=O)(=O)N2CCN(C(=O)c3ccco3)CC2)cc1 [1-(4-{4-[(furan-2-yl)carbonyl]piperazine-1-sulfonyl}phenyl)-3-(pyridin-3-ylmethyl)urea] | – | – |
| 4 | 343 | O=C(NCc1cccnc1)Nc1ccc(S(=O)(=O)N2CCC3(CCCC3)CC2)cc1 [1-(4-{8-azaspiro[4.5]decane-8-sulfonyl}phenyl)-3-(pyridin-3-ylmethyl)urea] | – | – |
| 5 | 11 | O=C(NCc1cccnc1)Nc1ccc(S(=O)(=O)Nc2ccccc2N2CCOCC2)cc1 [1-(4-{[2-(morpholin-4-yl)phenyl]sulfamoyl}phenyl)-3-(pyridin-3-ylmethyl)urea] | – | – |
| 3.6 | 7.9 | O=C(NCc1cccnc1)Nc1ccc(S(=O)(=O)c2ccccc2CN2CCOCC2)cc1 [1-(4-{[2-(morpholin-4-ylmethyl)benzene]sulfonyl}phenyl)-3-(pyridin-3-ylmethyl)urea] | – | – |
| 4 | 18 | O=C(NCc1cccnc1)Nc1ccc(S(=O)(=O)Nc2ccccc2N2CCCCC2)cc1 [1-(4-{[2-(piperidin-1-yl)phenyl]sulfamoyl}phenyl)-3-(pyridin-3-ylmethyl)urea] | – | – |
| 2.2 | 98 | O=C(NCc1cccnc1)Nc1ccc(S(=O)(=O)c2cccc(-n3cccn3)c2)cc1 [1-(4-{[3-(1H-pyrazol-1-yl)benzene]sulfonyl}phenyl)-3-(pyridin-3-ylmethyl)urea] | – | – |
| 8.6 | 100 to 1000 | O=C(NCc1cccnc1)Nc1ccc(S(=O)(=O)c2cccc(OCC3CC3)c2)cc1 [1-(4-{[3-(cyclopropylmethoxy)benzene]sulfonyl}phenyl)-3-(pyridin-3-ylmethyl)urea] | – | – |
| 6 | 103 | O=C(NCc1cccnc1)Nc1ccc(S(=O)(=O)Nc2cccc(N3CCOCC3)c2)cc1 [1-(4-{[3-(morpholin-4-yl)phenyl]sulfamoyl}phenyl)-3-(pyridin-3-ylmethyl)urea] | – | – |
| 5.5 | 55 | O=C(NCc1cccnc1)Nc1ccc(S(=O)(=O)c2ccc(-n3cccn3)cc2)cc1 [1-(4-{[4-(1H-pyrazol-1-yl)benzene]sulfonyl}phenyl)-3-(pyridin-3-ylmethyl)urea] | – | – |
| 1.8 | 14.7 | O=C(NCc1cccnc1)Nc1ccc(S(=O)(=O)c2ccc(N3CCOCC3)cc2)cc1 [1-(4-{[4-(morpholin-4-yl)benzene]sulfonyl}phenyl)-3-(pyridin-3-ylmethyl)urea] | – | – |
| 5 | 173 | O=C(NCc1cccnc1)Nc1ccc(S(=O)(=O)Nc2ccc(N3CCOCC3)cc2)cc1 [1-(4-{[4-(morpholin-4-yl)phenyl]sulfamoyl}phenyl)-3-(pyridin-3-ylmethyl)urea] | – | – |
| 1 | – | O=C(NCc1cccnc1)Nc1ccc(S(=O)(=O)Nc2cccc(Cl)c2)cc1 [3-{4-[(3-chlorophenyl)sulfamoyl]phenyl]-1-(pyridin-3-ylmethyl)urea] | – | – |
| 10 | – | Cc1cccc(NS(=O)(=O)c2ccc(NC(=O)NCc3cccnc3)cc2)c1 [3-{4-[(3-methylphenyl)sulfamoyl]phenyl}-1-(pyridin-3-ylmethyl)urea] | – | – |
| 7 | – | CCc1ccc(NS(=O)(=O)c2ccc(NC(=O)NCc3cccnc3)cc2)cc1 [3-{4-[(4-ethylphenyl)sulfamoyl]phenyl}-1-(pyridin-3-ylmethyl)urea] | – | – |
| 7 | – | CC(C)CN(C)S(=O)(=O)c1ccc(NC(=O)NCc2cccnc2)cc1 [3-{4-[methyl(2-methylpropyl)sulfamoyl]phenyl}-1-(pyridin-3-ylmethyl)urea] | – | – |
| 7 | – | CN(Cc1cccc(C(F)(F)F)c1)S(=O)(=O)c1ccc(NC(=O)NCc2cccnc2)cc1 [3-{4-[methyl({[3-(trifluoromethyl)phenyl]methyl})sulfamoyl]phenyl}-1-(pyridin-3-ylmethyl)urea] | – | – |

| Structure (SMILES) | IC50 (NAMPT; [1]) [nM] | IC50 (A2780 cells; Homo sapiens, A2780, 72 h) [nM] | IC50 (A2780 cells) [nM] | IC50 (NAMPT) [nM] |
| --- | --- | --- | --- | --- |
| O=C(NCc1cccnc1)Nc1ccc(S(=O)(=O)N2Cc3cccc4cccc(c34)C2)cc1 [1-(4-{3-azatricyclo[7.3.1.0^5,^13]trideca-1(13),5,7,9,11-pentaene-3-sulfonyl}phenyl)-3-(pyridin-3-ylmethyl)urea] | 2 | – | 26 | – |
| O=C(NCc1cccnc1)Nc1ccc(S(=O)(=O)N2C3CCCC2CC3)cc1 [1-(4-{8-azabicyclo[3.2.1]octane-8-sulfonyl}phenyl)-3-(pyridin-3-ylmethyl)urea] | – | 64 | – | 4 |
| O=C(NCc1cccnc1)Nc1ccc(S(=O)(=O)c2cccc3c2oc2ccccc23)cc1 [1-(4-{8-oxatricyclo[7.4.0.0^2,^7]trideca-1(9),2(7),3,5,10,12-hexaene-6-sulfonyl}phenyl)-3-(pyridin-3-ylmethyl)urea] | 2 | – | 3 | – |
